Source: paper PMC6769532 (International Journal of Molecular Sciences, 2019)

T1: Riboflavin transporter 2 (RFVT2) (Homo sapiens, UniProt Q9HAB3)
T1 construct: gene SLC52A2; hRFVT2 carrying an N-terminal 6-Histidine tag
T1 sequence (Q9HAB3 1-445): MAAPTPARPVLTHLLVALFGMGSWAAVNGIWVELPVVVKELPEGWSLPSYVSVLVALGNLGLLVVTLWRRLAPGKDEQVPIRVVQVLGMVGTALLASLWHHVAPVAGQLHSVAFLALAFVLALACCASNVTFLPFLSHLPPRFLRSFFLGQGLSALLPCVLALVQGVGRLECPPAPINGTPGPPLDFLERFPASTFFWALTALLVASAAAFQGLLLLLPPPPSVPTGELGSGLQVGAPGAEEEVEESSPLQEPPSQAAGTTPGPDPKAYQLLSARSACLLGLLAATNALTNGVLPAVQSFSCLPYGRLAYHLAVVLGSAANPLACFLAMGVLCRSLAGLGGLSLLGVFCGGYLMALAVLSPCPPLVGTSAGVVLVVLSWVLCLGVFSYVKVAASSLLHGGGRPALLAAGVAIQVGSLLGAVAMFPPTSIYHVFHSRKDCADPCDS


Assays:
[1] = biological target: T1, Riboflavin transporter 2 (RFVT2); test: inhibition of [3H]riboflavin uptake in proteoliposomes with purified recombinant RFVT2, dose-response; type: biochemical
purified protein = substrate: Cc1cc2nc3c(=O)[nH]c(=O)nc-3n(C[C@H](O)[C@H](O)[C@H](O)CO)c2cc1C; test: purified protein

Row | Molecule | IC50 [1] [µM] | Km (purified protein) [µM]
1 | Cc1cc2nc3c(=O)[nH]c(=O)nc-3n(C[C@H](O)[C@H](O)[C@H](O)COP(=O)(O)O)c2cc1C [FMN] | 3.3 ± 0.8 | 
2 | Riboflavin transporter 2 (RFVT2) (Homo sapiens) (protein) MAAPTPARPVLTHLLVALFGMGSWAAVNGIWVELPVVVKELPEGWSLPSYVSVLVALGNLGLLVVTLWRRLAPGKDEQVPIRVVQVLGMVGTALLASLWHHVAPVAGQLHSVAFLALAFVLALACCASNVTFLPFLSHLPPRFLRSFFLGQGLSALLPCVLALVQGVGRLECPPAPINGTPGPPLDFLERFPASTFFWALTALLVASAAAFQGLLLLLPPPPSVPTGELGSGLQVGAPGAEEEVEESSPLQEPPSQAAGTTPGPDPKAYQLLSARSACLLGLLAATNALTNGVLPAVQSFSCLPYGRLAYHLAVVLGSAANPLACFLAMGVLCRSLAGLGGLSLLGVFCGGYLMALAVLSPCPPLVGTSAGVVLVVLSWVLCLGVFSYVKVAASSLLHGGGRPALLAAGVAIQVGSLLGAVAMFPPTSIYHVFHSRKDCADPCDS |  | 0.26 ± 0.07
